Laboratory results from patent US20220202799A1, “PHARMACEUTICAL FORMULATIONS CONTAINING P2Y14 ANTAGONISTS” (priority 2019, published 2022).
Several values for one entry are separate records, joined by “and”; a condition that tells them apart may be missing. Equal entries are not always repeated.

Experiments:
Assay type in all cases: physicochemical
[1] = Loss of PPTN due to adherence to surfaces of vessels; conditions: 200 ng/ml PPTN, no solubilizing agent, 24 hours
Procedure: The loss of PPTN due to adherence to surfaces of vessels was analyzed. PPTN is a hydrophobic compound that may adhere to plastics and other surfaces. To test how much PPTN is lost due to surface adhesion, an aqueous solution containing 200 ng/ml PPTN and less than 0.1% acetonitrile was incubated in the absence of solubilizing agent in various vessels for 24 hours. […]

[2] = Stability of PPTN/SBECD solution on dilution into saline; conditions: 9 mg/mL PPTN
Procedure: The stability of PPTN in SBECD-containing solutions was analyzed at various concentrations of PPTN. A solution containing 9 mg/mL PPTN and 12% SBECD, as described above, was diluted into saline as described in Table 13.

[3] = Potency and purity of diluted dosing solutions after manufacture and shipping; conditions: for [KB-1801] determined by HPLC assay: shipped at ambient temperature
Procedure: The stability of high-concentration PPTN solutions containing SBECD were analyzed under conditions used for product manufacturing and distribution. A stock solution containing 8.6 mg/mL PPTN, 12% SBECD in saline was prepared as described above and shipped under refrigerated conditions. Seven days after manufacture, the stock solution was diluted to make dosing solutions for administration as a continuous intravenous infusion as indicated in Table 14 and Table 15.
Samples of diluted dosing solutions were shipped at ambient temperature and analyzed for PPTN (KB-1801) potency and purity.

[4] = dosing solution, targeted [KB-1801] 0.25 mg/mL
[5] = dosing solution, targeted [KB-1801] 0.75 mg/mL
[6] = dosing solution, targeted [KB-1801] 2.5 mg/mL

O=C(O)c1cc(-c2ccc(C3CCNCC3)cc2)c2ccc(-c3ccc(C(F)(F)F)cc3)cc2c1 [KB-1801, 4-[4-(piperidin-4-yl)phenyl]-7-[4-(trifluoromethyl)phenyl]-2-naphthoic acid]
% recovery vs. control ([1]; Corning pipette tip): 22% | % recovery vs. standard ([1]; Corning pipette tip): 6% | % recovery vs. control ([1]; Eppendorf clear conical tube): 19% | % recovery vs. standard ([1]; Eppendorf clear conical tube): 5% | % recovery vs. control ([1]; Eppendorf orange conical tube): 25% | % recovery vs. standard ([1]; Eppendorf orange conical tube): 6% | % recovery vs. control ([1]; Versilon SE200 Tygon tubing): 8% | % recovery vs. standard ([1]; Versilon SE200 Tygon tubing): 2% | % recovery vs. control ([1]; polyetheretherketone tubing): 22% | % recovery vs. standard ([1]; polyetheretherketone tubing): 6% | Result (appearance after dilution) ([2]; 12% SBECD stock diluted 3x with saline): Clear solution | Result (appearance after dilution) ([2]; 12% SBECD stock diluted 10x with saline): Clear solution | Result (appearance after dilution) ([2]; 12% SBECD stock diluted 50x with saline): Clear solution | Concentration higher than target concentrations ([3]; all dosing solution samples): 1.6-8.0% | Degradation products ([3]; all dosing solution samples): No evidence of degradation products was observed in any sample | Impurity profile by HPLC area % [3, 4]: No imp > 0.10 a % | [KB-1801] determined by HPLC assay [3, 4]: 0.27 mg/mL and 0.26 mg/mL | Impurity profile by HPLC area % [3, 5]: No imp > 0.10 a % | [KB-1801] deviation from targeted concentration [3, 5]: +1.3% | [KB-1801] determined by HPLC assay [3, 5]: 0.76 mg/mL | Impurity profile by HPLC area % [3, 6]: No imp > 0.10 a % | [KB-1801] determined by HPLC assay [3, 6]: 2.56 mg/mL and 2.57 mg/mL
